Experimental data reported in PMC9502202, “Discovery of Novel Potential Aphid Repellents: Geranic Acid Esters Containing Substituted Aromatic Rings” (Molecules, 2022).

tested on: Acyrthosiphon pisum (A. pisum); experiment: Repellent activity test, glass two-way olfactometer; type: in vivo; conditions: 0.25 h, wingless A. pisum, 2.5 µL of 2000 mg/L test solution in n-hexane on filter paper, 15 min, RP = (C − T)/(C + T) × 100%, mean ± standard deviation, read-out: RP (%) repellency proportion
Protocol: The behavioral response of A. pisum to 5a-5x was investigated with a glass two-way olfactometer, and the aphid-repellent activity was carried out according to our previously published method. The aphids were reared in a growth chamber (at 23 ± 1 °C, with a […]:8D photoperiod and 70% relative humidity) at China Agricultural University. The compounds were weighed, dissolved in n-hexane, and prepared into a test solution with a concentration of 2000 mg/L using n-hexane as a blank control. About 20 wingless A. pisum were placed through the release port and each arm was pumped with 0.2 L/min of activated carbon and distilled water. One arm was chosen as the “treatment” (T) arm and another was the “control” (C) arm. For the “T” arm, 2.5 μL of test solutions were applied to filter paper strips (1 cm^2 diameter), and 2.5 μL of n-hexane was applied for the “C” arm. The number of aphids in each direction was recorded for 15 min at 2 cm from the center of the horizontal arm. The olfactometer was washed with ethanol, the filter paper was replaced, and the two arms were switched and the experiment was repeated four times for each treatment. The repellent activity was evaluated using RP as the formula RP = (C - T)/(C+T) × 100%, where T and C mean the number of aphids in the treatment and control arm, respectively. The RP values of the derivatives were statistically analyzed with SPSS 24.0 (SPSS Inc., Chicago, IL, USA) using a one-way analysis of variance (ANOVA), followed by a Duncan's test with a significance set at p < 0.05.

Row | SMILES | pest or weed control at 2000 µg/mL [%]
1 | CC(C)=CCC/C(C)=C/C(=O)Oc1ccccc1 [5a] | 38.1 ± 2.38
2 | CC(C)=CCC/C(C)=C/C(=O)Oc1ccccc1C [5b, 2-tolyl (E)-3,7-dimethylocta-2,6-dienoate] | 35.2 ± 2.65
3 | CC(C)=CCC/C(C)=C/C(=O)Oc1cccc(C)c1 [5c, 3-tolyl (E)-3,7-dimethylocta-2,6-dienoate] | 39.8 ± 1.95
4 | CC(C)=CCC/C(C)=C/C(=O)Oc1ccc(C)cc1 [5d, 4-tolyl (E)-3,7-dimethylocta-2,6-dienoate] | 38.7 ± 2.75
5 | COc1ccccc1OC(=O)/C=C(\C)CCC=C(C)C [5e, 2-methoxyphenyl (E)-3,7-dimethylocta-2,6-dienoate] | 37.4 ± 2.08
6 | COc1cccc(OC(=O)/C=C(\C)CCC=C(C)C)c1 [5f, 3-methoxyphenyl (E)-3,7-dimethylocta-2,6-dienoate] | 55.6
7 | COc1ccc(OC(=O)/C=C(\C)CCC=C(C)C)cc1 [5g, 4-methoxyphenyl (E)-3,7-dimethylocta-2,6-dienoate] | 43.6 ± 3.09
8 | CC(C)=CCC/C(C)=C/C(=O)Oc1ccccc1Cl [5h, 2-chlorophenyl (E)-3,7-dimethylocta-2,6-dienoate] | 31.8 ± 1.31
9 | CC(C)=CCC/C(C)=C/C(=O)Oc1cccc(Cl)c1 [5i, 3-chlorophenyl (E)-3,7-dimethylocta-2,6-dienoate] | 51.4 ± 1.2
10 | CC(C)=CCC/C(C)=C/C(=O)Oc1ccc(Cl)cc1 [5j, 4-chlorophenyl (E)-3,7-dimethylocta-2,6-dienoate] | 38.7 ± 2.75
11 | CC(C)=CCC/C(C)=C/C(=O)Oc1ccccc1F [5k, 2-fluorophenyl (E)-3,7-dimethylocta-2,6-dienoate] | 28.8 ± 1.31
12 | CC(C)=CCC/C(C)=C/C(=O)Oc1cccc(F)c1 [5l, 3-fluorophenyl (E)-3,7-dimethylocta-2,6-dienoate] | 34.9 ± 3.3
13 | CC(C)=CCC/C(C)=C/C(=O)Oc1ccc(F)cc1 [5m, 4-fluorophenyl (E)-3,7-dimethylocta-2,6-dienoate] | 27.9 ± 2.85
14 | CC(C)=CCC/C(C)=C/C(=O)Oc1ccccc1[N+](=O)[O-] [5n, 2-nitrophenyl (E)-3,7-dimethylocta-2,6-dienoate] | 23.4 ± 2.35
15 | CC(C)=CCC/C(C)=C/C(=O)Oc1cccc([N+](=O)[O-])c1 [5o, 3-nitrophenyl (E)-3,7-dimethylocta-2,6-dienoate] | 41.5 ± 1.49
16 | CC(C)=CCC/C(C)=C/C(=O)Oc1ccc([N+](=O)[O-])cc1 [5p, 4-nitrophenyl (E)-3,7-dimethylocta-2,6-dienoate] | 39.8 ± 1.95
17 | CC(C)=CCC/C(C)=C/C(=O)Oc1ccccc1Br [5q, 2-bromophenyl (E)-3,7-dimethylocta-2,6-dienoate] | 42.7 ± 1.36
18 | CC(C)=CCC/C(C)=C/C(=O)Oc1cccc(Br)c1 [5r, 3-bromophenyl (E)-3,7-dimethylocta-2,6-dienoate] | 51.2 ± 1.94
19 | CC(C)=CCC/C(C)=C/C(=O)Oc1ccc(Br)cc1 [5s, 4-bromophenyl (E)-3,7-dimethylocta-2,6-dienoate] | 43.4
20 | CC(C)=CCC/C(C)=C/C(=O)Oc1ccccc1OC(F)(F)F [5t, 2-(trifluoromethoxy)phenyl (E)-3,7-dimethylocta-2,6-dienoate] | 28.2 ± 1.55
21 | CC(C)=CCC/C(C)=C/C(=O)Oc1cccc(OC(F)(F)F)c1 [5u, 3-(trifluoromethoxy)phenyl (E)-3,7-dimethylocta-2,6-dienoate] | 38 ± 2.54
22 | CC(C)=CCC/C(C)=C/C(=O)Oc1ccc(OC(F)(F)F)cc1 [5v, 4-(trifluoromethoxy)phenyl (E)-3,7-dimethylocta-2,6-dienoate] | 24.9 ± 2.52
23 | CC(C)=CCC/C(C)=C/C(=O)Oc1c(F)cccc1F [5w, 2,6-difluorophenyl (E)-3,7-dimethylocta-2,6-dienoate] | 36.7
24 | CC(C)=CCC/C(C)=C/C(=O)Oc1c(Br)cccc1Br [5x, 2,6-dibromophenyl (E)-3,7-dimethylocta-2,6-dienoate] | 43.9 ± 2.09
25 | CC(C)=CCC/C(C)=C/COC(=O)c1ccc(Br)cc1 [CAU14, reference compound] | 33.5
26 | CC(C)=CCC/C(C)=C/COC(=O)c1c(F)cccc1F [CAU15, reference compound] | 18.3
